Results: US12084522B2, “Peptides, combination of peptides, and cell based medicaments for use in immunotherapy against urinary bladder cancer and other cancers” (Immatics Biotechnologies GmbH, priority 2016, dated 2024)

Tests used:
[1] = test system: CD8+ T cells from healthy HLA-A*02 donors; assay: In vitro immunogenicity: priming of CD8+ T cells with aAPCs loaded with peptide/MHC complexes and anti-CD28, pMHC multimer readout; type: cell-based, human; details: for Wells positive [%]: HLA-A*02 restricted peptides, positive wells among evaluable, Table 10B; for Wells (in vitro immunogenicity, positive wells): HLA class I peptides, Table 10A
Excerpt: In order to obtain information regarding the immunogenicity of the TUMAPs of the present invention, the inventors performed investigations using an in vitro T-cell priming assay based on repeated stimulations of CD8+ T cells with artificial antigen presenting cells (aAPCs) loaded with peptide/MHC complexes and anti-CD28 antibody.
In order to perform in vitro stimulations by artificial antigen presenting cells loaded with peptide-MHC complex (pMHC) and anti-CD28 antibody, the inventors first isolated CD8+ T cells from fresh HLA-A*02 leukapheresis products via positive selection using CD8 microbeads (Miltenyi Biotec, Bergisch-Gladbach, Germany) of healthy donors obtained from the University clinics Mannheim, Germany, after informed consent.
PBMCs and isolated CD8+ lymphocytes were incubated in T-cell medium (TCM) until use consisting of RPMI-Glutamax (Invitrogen, Karlsruhe, Germany) supplemented with 10% heat inactivated human AB serum (PAN-Biotech, Aidenbach, Germany), 100 U/ml Penicillin/100 μg/ml Streptomycin (Cambrex, Cologne, Germany), 1 mM sodium pyruvate (CC Pro, Oberdorla, Germany), 20 μg/ml Gentamycin (Cambrex). 2.5 ng/ml IL-7 (PromoCell, Heidelberg, Germany) and 10 U/ml IL-2 (Novartis Pharma, Nürnberg, Germany) were also added to the TCM at this step.
Generation of pMHC/anti-CD28 coated beads, T-cell stimulations and readout was performed in a highly defined in vitro system using four different pMHC molecules per stimulation condition and 8 different pMHC molecules per readout condition.
The purified co-stimulatory mouse IgG2a anti human CD28 Ab 9.3 (Jung et al., 1987) was chemically biotinylated using Sulfo-N-hydroxysuccinimidobiotin as recommended by the manufacturer (Perbio, Bonn, Germany). Beads used were 5.6 μm diameter streptavidin coated polystyrene particles (Bangs Laboratories, Illinois, USA).
800.000 beads/200 μl were coated in 96-well plates in the presence of 4×12.5 ng different biotin-pMHC, washed and 600 ng biotin anti-CD28 were added subsequently in a volume of 200 μl. Stimulations were initiated in 96-well plates by co-incubating 1×10^6 CD8+ T cells with 2×10^5 washed coated beads in 200 μl TCM supplemented with 5 ng/ml IL-12 (PromoCell) for 3 days at 37° C. Half of the medium was then exchanged by fresh TCM supplemented with 80 U/ml IL-2 and incubating was continued for 4 days at 37° C. This stimulation cycle was performed for a total of three times. For the pMHC multimer readout using 8 different pMHC molecules per condition, a two-dimensional combinatorial coding approach was used as previously described (Andersen et al., 2012) with minor modifications encompassing coupling to 5 different fluorochromes. Finally, multimeric analyses were performed by staining the cells with Live/dead near IR dye (Invitrogen, Karlsruhe, Germany), CD8-FITC antibody clone SK1 (BD, Heidelberg, Germany) and fluorescent pMHC multimers. For analysis, a BD LSRII SORP cytometer equipped with appropriate lasers and filters was used. Peptide specific cells were calculated as percentage of total CD8+ cells. Evaluation of multimeric analysis was done using the FlowJo software (Tree Star, Oregon, USA). In vitro priming of specific multimer+CD8+ lymphocytes was detected by comparing to negative control stimulations.

HLA-A*02:01 = HLA-A*02:01 (Homo sapiens, UniProt P04439, D140Y/D185E/D98H/E176V/E277Q/G131W/G231S/I119V/I121R/I166T/I218V/L300P/L318F/N151K/N90K/P208A/P217A/Q86G/Q94H/R138H/R169H/T345S); assay: MHC binding assay (UV-ligand exchange, β2m ELISA, peptide exchange yield); details: binding to HLA-A*02:01 ranged by peptide exchange yield (UV-ligand exchange, β2m ELISA)
Excerpt: Candidate peptides for T cell based therapies according to the present invention were further tested for their MHC binding capacity (affinity). The individual peptide-MHC complexes were produced by UV-ligand exchange, where a UV-sensitive peptide is cleaved upon UV-irradiation, and exchanged with the peptide of interest as analyzed. Only peptide candidates that can effectively bind and stabilize the peptide-receptive MHC molecules prevent dissociation of the MHC complexes. To determine the yield of the exchange reaction, an ELISA was performed based on the detection of the light chain (β2 m) of stabilized MHC complexes. The assay was performed as generally described in Rodenko et al. (Rodenko et al., 2006).
96 well MAXISorp plates (NUNC) were coated over night with 2 μg/ml streptavidin in PBS at room temperature, washed 4× and blocked forth at 37° C. in 2% BSA containing blocking buffer. Refolded HLA-A*02:01/MLA-001 monomers served as standards, covering the range of 15-500 ng/ml. Peptide-MHC monomers of the UV-exchange reaction were diluted 100 fold in blocking buffer. Samples were incubated for 1 h at 37° C., washed four times, incubated with 2 ug/ml HRP conjugated anti-β2 m for 1 h at 37° C., washed again and detected with TMB solution that is stopped with […]. Absorption was measured at 450 nm. Candidate peptides that show a high exchange yield (preferably higher than 50%, most preferred higher than 75%) are generally preferred for a generation and production of antibodies or fragments thereof, and/or T cell receptors or fragments thereof, as they show sufficient avidity to the MHC molecules and prevent dissociation of the MHC complexes.

Substance | Wells positive [%] [1] | Peptide exchange (HLA-A*02:01) | Wells (in vitro immunogenicity, positive wells) [1]
4 (SLDVVNLLV; listed as Homo sapiens) [compound 4] | + (<20% = +) | ++++ (>75% = ++++) | 
5 (IQDPVIFYV; listed as Homo sapiens) [compound 5] | +++ (50%-69% = +++) | ++++ (>75% = ++++) | 
6 (SIVDFLITA; listed as Homo sapiens) [compound 6] | + (<20% = +) | +++ (>50 = +++) | 
9 (SLVDARFQL; listed as Homo sapiens) [compound 9] | + (<20% = +) | ++++ (>75% = ++++) | 
10 (GLWHGMFANV; listed as Homo sapiens) [compound 10] | ++ (20%-49% = ++) | ++++ (>75% = ++++) | 
14 (GLAGPVRGV; listed as Homo sapiens) [compound 14] | + (<20% = +) | +++ (>50 = +++) | 
15 (YLAPENGYLMEA; listed as Homo sapiens) [compound 15] | + (<20% = +) | +++ (>50 = +++) | 
16 (ILGPQGNTI; listed as Homo sapiens) [compound 16] | + (<20% = +) | +++ (>50 = +++) | 
17 (RLSQLEGVNV; listed as Homo sapiens) [compound 17] | + (<20% = +) | +++ (>50 = +++) | 
23 (YTLSKTEFL; listed as Homo sapiens) [compound 23] | + (<20% = +) | ++++ (>75% = ++++) | 
24 (SLLGGITVV; listed as Homo sapiens) [compound 24] | ++ (20%-49% = ++) | ++++ (>75% = ++++) | 
27 (STTNGGILTV; listed as Homo sapiens) [compound 27] | + (<20% = +) | +++ (>50 = +++) | 
29 (ALSSPPPTV; listed as Homo sapiens) [compound 29] | + (<20% = +) | +++ (>50 = +++) | 
30 (ILDISRSEV; listed as Homo sapiens) [compound 30] | ++++ (>=70% = ++++) | +++ (>50 = +++) | 
41 (FLDDGNQMLL; listed as Homo sapiens) [compound 41] | + (<20% = +) | ++++ (>75% = ++++) | 
50 (VLANRVAVV; listed as Homo sapiens) [compound 50] | ++++ (>=70% = ++++) | +++ (>50 = +++) | 
53 (ILVQVIPVV; listed as Homo sapiens) [compound 53] | ++ (20%-49% = ++) | +++ (>50 = +++) | 
57 (GLAHFVNEI; listed as Homo sapiens) [compound 57] | + (<20% = +) | ++++ (>75% = ++++) | 
59 (WLSTSIPEA; listed as Homo sapiens) [compound 59] | + (<20% = +) | ++++ (>75% = ++++) | 
60 (SLSDVRVIV; listed as Homo sapiens) [compound 60] | + (<20% = +) | ++++ (>75% = ++++) | 
155 (VLSSGLTAA; listed as Homo sapiens) [compound 155] |  |  | + (<20% = +)
156 (KLVEFDFLGA; listed as Homo sapiens) [compound 156] |  |  | + (<20% = +)
159 (SLIEDLILL; listed as Homo sapiens) [compound 159] |  |  | + (<20% = +)

Substance | Wells positive [%] [1] | Peptide exchange (HLA-A*02:01) | Wells (in vitro immunogenicity, positive wells) [1]
160 (SLLGGNIRL; listed as Homo sapiens) [compound 160] |  |  | ++ (20%-49% = ++)
162 (TLLAAEFLKQV; listed as Homo sapiens) [compound 162] |  |  | + (<20% = +)
164 (ALADLTGTVV; listed as Homo sapiens) [compound 164] |  |  | + (<20% = +)
167 (SLWGGDVVL; listed as Homo sapiens) [compound 167] |  |  | ++ (20%-49% = ++)
168 (LTAPPEALLMV; listed as Homo sapiens) [compound 168] |  |  | + (<20% = +)
170 (GLIEIISNA; listed as Homo sapiens) [compound 170] |  |  | + (<20% = +)
172 (LLYGHTVTV; listed as Homo sapiens) [compound 172] |  |  | ++ (20%-49% = ++)
173 (FVFSFPVSV; listed as Homo sapiens) [compound 173] |  |  | ++ (20%-49% = ++)
176 (SMSGYDQVL; listed as Homo sapiens) [compound 176] |  |  | + (<20% = +)
177 (NLLQVLEKV; listed as Homo sapiens) [compound 177] |  |  | + (<20% = +)
178 (ALNEEAGRLLL; listed as Homo sapiens) [compound 178] |  |  | + (<20% = +)
182 (YLAPFLRNV; listed as Homo sapiens) [compound 182] |  |  | ++ (20%-49% = ++)
184 (LMTKEISSV; listed as Homo sapiens) [compound 184] |  |  | + (<20% = +)
186 (VLYPHEPTAV; listed as Homo sapiens) [compound 186] |  |  | + (<20% = +)
189 (ALLRTVVSV; listed as Homo sapiens) [compound 189] |  |  | + (<20% = +)
192 (ALNPADITV; listed as Homo sapiens) [compound 192] |  |  | ++ (20%-49% = ++)
193 (ALVQDLAKA; listed as Homo sapiens) [compound 193] |  |  | ++ (20%-49% = ++)
198 (NLIEKSIYL; listed as Homo sapiens) [compound 198] |  |  | + (<20% = +)
200 (YLNVQVKEL; listed as Homo sapiens) [compound 200] |  |  | + (<20% = +)
203 (FLIPYAIML; listed as Homo sapiens) [compound 203] |  |  | + (<20% = +)
204 (GVYDGEEHSV; listed as Homo sapiens) [compound 204] |  |  | + (<20% = +)
205 (KIVDFSYSV; listed as Homo sapiens) [compound 205] |  |  | ++ (20%-49% = ++)
